Experiment [1] relates to C3 fragment deposition on artificial PNH cells. The experiment is described as follows: C3 fragment deposition on artificial PNH cells (flow cytometry). The format is cell-based. As to conditions: 32% acidified C5-depleted normal human serum; read-out: IC50, inhibition of C3 fragment deposition on artificial PNH cells. As to the method:
C5-depleted normal human serum (C5-Dpl NHS), gelatin veronal buffer (GVB) without Ca^++ and Mg^++ (GVB^0), 100 mM MgCl2+100 mM EGTA (MgEGTA) were obtained from Complement Technology Inc. (Tyler, TX). GVB^0·MgEGTA was prepared by mixing GVB^0 and 100 mM MgEGTA in a 9:1 ratio. FITC-conjugated anti-C3c antibody (cat #ab4212) and Alexa Fluor® 647-conjugated anti human CD59 antibody (cat #:ab187769) were purchased from Abcam (Cambridge, MA). […] Ferrone, and F. Mercuriali, The Action of Two Sulfhydryl Compounds on Normal Human Red Cells. Relationship to Red Cells of Paroxysmal Nocturnal Hemoglobinuria. Blood, 1965. 25: p. 502-10). After AET treatment, artificial PNH erythrocytes were centrifuged, supernatant was aspirated and cells were thoroughly washed with phosphate buffered saline (PBS) 3 times followed by washing with GVB^0 buffer ([…]) for additional 3 times. […] C3 fragment deposition on the surface of the erythrocytes was assessed by flow cytometry with BD Accuri C6 cytometer (BD Biosciences, San Jose, CA). […] IC50 values from each experiment were determined by curve-fitting of experimental data (the % C3 fragment-positive cells at increasing concentrations of inhibitor) to the four-parameter sigmoidal dose-response equation using non-linear regression analysis (Prism Software, GraphPad, La Jolla, CA).
In general terms: Flow cytometry measures light scatter and fluorescence of single cells or particles in a stream.

Experiment [2] deals with C3 fragment deposition on rabbit erythrocytes. Put plainly: C3 fragment deposition on rabbit erythrocytes (flow cytometry). The format is cell-based. As to conditions: 20% C5-depleted normal human serum; read-out: IC50, inhibition of C3 fragment deposition on rabbit erythrocytes. As to the method:
Rabbit erythrocytes, C5-depleted normal human serum (C5-Dpl NHS), gelatin veronal buffer (GVB) without Ca^++ and Mg (GVB^0), 100 mM MgCl2+100 mM EGTA (MgEGTA) were obtained from Complement Technology Inc. (Tyler, TX). GVB^0·MgEGTA was prepared by mixing GVB^0 and 100 mM MgEGTA in a 9:1 ratio. FITC-conjugated anti-C3c antibody (cat#ab4212) and Alexa Fluor® 647-conjugated anti human CD59 antibody (cat#: ab187769) were purchased from Abcam (Cambridge, MA).
Reactions were incubated at 37° C. for 15 minutes, the reactions were quenched by addition of EDTA at a final concentration of 20 mM. Cells were stained with a FITC-conjugated anti-C3c antibody at a dilution of 1:200 and C3 fragment deposition on the surface of rabbit erythrocytes was assessed by flow cytometry with BD Accuri C6 cytometer (BD Biosciences, San Jose, CA). Forward and side scatter parameters were used to gate intact erythrocytes. Controls included cells labeled with FITC-conjugated antibody isotype control. IC50 values from each experiment were determined by curve-fitting of experimental data (the % C3 fragment-positive cells at increasing concentrations of inhibitor) to the four-parameter sigmoidal dose-response equation using non-linear regression analysis (Prism Software, GraphPad, La Jolla, CA).

Another experiment concerns PNH erythrocytes. The experiment is described as follows: CAP-mediated hemolysis assay with PNH erythrocytes (subject A). The format is cell-based, human. As to conditions: for Inhibition (%) of CAP activity: Compound 1 0 μM. As to the method:
Complement-preserved normal human serum (NHS) from an individual donor of ABO blood group type AB (NHS-AB) was purchase from BioreclamationIVT (Westbury, NY). Gelatin veronal buffer (GVB), pH 7.3, without Ca^++ and Mg^++ (GVB^0) and 100 mM MgCl2 +100 mM EGTA (MgEGTA) were obtained from Complement Technology Inc. (Tyler, TX).
GVB^0·MgEGTA was prepared by mixing GVB^0 and 100 mM MgEGTA in a 9:1 ratio. PNH erythrocytes were used within five days of blood collection; before assay cells were collected by centrifugation at 800×g and 4° C. for 3 minutes and resuspended in fresh cold GVB^0·MgEGTA to a density of 5×10^8 cells/mL.
50 μL of NHS-AB was added to each well. The plates were mixed and incubated at room temperature for 5 minutes. 24 μL of this NHS-AB with compound was then transferred to duplicate wells of V-bottom microtiter plates each containing 76 μL GVB0·MgEGTA. 20 μL PNH erythrocytes was then added to each well and the plates were sealed, mixed, and incubated at 37° C. for 30 minutes with an added shaking for 15 minutes. […] Following incubation, PNH cells were removed by centrifugation at 800×g and 4° C. for 3 minutes, 100 μL supernatant per well was transferred to flat-bottom clear microtiter plates, and A405 of the supernatant was measured in a Molecular Devices Spectramax Plus plate reader.
Combinatorial interactions were analyzed via two methods.
Inhibition was analyzed by the method of Prichard and Shipman (Prichard, M. N. and C. Shipman, Jr. A Three-Dimensional Model to Analyze Drug-Drug Interactions. Antiviral Research 1990, 14:181-205) Three-dimensional surface graphs of each experiment were generated and analyzed using an Excel spreadsheet program adapted from the MacSynergy II spreadsheet (University of Alabama, Birmingham, AL). The X-axis and Y-axis of each surface graph represent the concentrations of the two test compounds, and the Z-axis represents the difference between measured inhibition and a theoretically determined additive inhibition. For an additive relationship, the surface graph resembles a horizontal plane at Z=0, whereas positive surface peaks indicate greater inhibition than expected and therefore synergy, and negative surface peaks indicate less inhibition than expected and therefore antagonism.
Synergy and antagonism volumes were calculated separately as the summed volumes of peaks respectively above and below the Z=0 plane. Volumes were determined using 95% confidence limits to assure significance.
Inhibition was analyzed by the method of Chou and Talalay (Chou, T.-C. and P. Talalay. Analysis of Combined Drug Effects: A New Look at a Very Old Problem. Trends Pharmacol. Sci. 1983, 4:450-454; Chou, T. C. Theoretical basis, experimental design, and computerized simulation of synergism and antagonism in drug combination studies. Pharmacological Reviews 2006, 58:621-681). Analysis using the median-effect equation of Chou and Talalay was performed with CompuSyn software (ComboSyn, Inc, Paramus, NJ). […] Combination index (CI) values were determined at inhibition values of 50%, 75%, and 90%.

As a reminder, the IC50 is the point on the concentration scale where inhibition reaches its midpoint. As for `CC[C@H](C)[C@H](N)C(=O)N[C@H]1CSSC[C@@H](C(=O)N[C@H](C(N)=O)[C@@H](C)O)NC(=O)[C@H](CCCN=C(N)N)NC(=O)[C@H](Cc2cnc[nH]2)NC(=O)[C@H](Cc2cnc[nH]2)NC(=O)CNC(=O)[C@H](Cc2c[nH]c3ccccc23)NC(=O)[C@H](CC(=O)O)NC(=O)[C@H](CCC(N)=O)NC(=O)[C@H](C(C)C)NC(=O)[C@H](C(C)C)NC1=O` [Compstatin, reference compound], the IC50 in experiment [1] is 2.2 µM; in experiment [2] it was 1.4 µM. Besides, the “Inhibition (%) of CAP activity” value with PNH erythrocytes (Experiment 2, Compstatin 0-300 μM) was determined as 0%; in the experiment on PNH erythrocytes (Experiment #1, Compstatin 0-300 μM), 0%. Further, in the experiment on PNH erythrocytes (single agent, PNH erythrocytes), the “inhibition at the high end of the test concentration ranges” value was “complete inhibition”.

B1: Eculizumab: monoclonal antibody complement inhibitor of the terminal component C5; only approved therapy for PNH (antibody, chains of the INN, looked up)
heavy: QVQLVQSGAEVKKPGASVKVSCKASGYIFSNYWIQWVRQAPGQGLEWMGEILPGSGSTEYTENFKDRVTMTRDTSTSTVYMELSSLRSEDTAVYYCARYFFGSSPNWYFDVWGQGTLVTVSSASTKGPSVFPLAPCSRSTSESTAALGCLVKDYFPEPVTVSWNSGALTSGVHTFPAVLQSSGLYSLSSVVTVPSSNFGTQTYTCNVDHKPSNTKVDKTVERKCCVECPPCPAPPVAGPSVFLFPPKPKDTLMISRTPEVTCVVVDVSQEDPEVQFNWYVDGVEVHNAKTKPREEQFNSTYRVVSVLTVLHQDWLNGKEYKCKVSNKGLPSSIEKTISKAKGQPREPQVYTLPPSQEEMTKNQVSLTCLVKGFYPSDIAVEWESNGQPENNYKTTPPVLDSDGSFFLYSRLTVDKSRWQEGNVFSCSVMHEALHNHYTQKSLSLSLG
light: DIQMTQSPSSLSASVGDRVTITCGASENIYGALNWYQQKPGKAPKLLIYGATNLADGVPSRFSGSGSGTDFTLTISSLQPEDFATYYCQNVLNTPLTFGQGTKVEIKRTVAAPSVFIFPPSDEQLKSGTASVVCLLNNFYPREAKVQWKVDNALQSGNSQESVTEQDSKDSTYSLSSTLTLSKADYEKHKVYACEVTHQGLSSPVTKSFNRGEC
As for B1, the “Inhibition (%) of CAP activity” value in the experiment on PNH erythrocytes (Experiment 2, Eculizumab 0-400 μg/mL) turned out to be 0%; in the experiment on PNH erythrocytes (Experiment #1, Eculizumab 0-400 μg/mL), 0%.

The values above are taken from patent US20250032490A1, “THERAPEUTIC REGIMENS FOR TREATMENT OF PAROXYSMAL NOCTURNAL HEMOGLOBINURIA” (Achillion Pharmaceuticals, Inc., priority 2017, published 2025).
